The numbers were not newly measured in patent publication US11925695B2, “Methods for making ultrasound contrast agents” (Lantheus Medical Imaging, Inc., priority 2016, dated 2024), which cites them from elsewhere.

Read-outs that look alike come from different tables or passages of the source.

Test in data set [1]: not given
The source holds these as a separate data set.

For the molecule `CCCCCCCCCCCCCCCC(=O)OC[C@H](COP(=O)(O)OCCN)OC(=O)CCCCCCCCCCCCCCC` [DPPE, 1,2-dipalmitoyl-sn-glycero-3-phosphatidylethanolamine], the “pKa for the amine of the ethanolamine” value is 9.3 and the “pKa for the hydroxyl of the phosphate” value is given as 1.9.

As for `OCC(O)CO` [Glycerol, glycerol], the viscosity in data set [1] (at 15° C.) is reported as 2200 cps.

Consider `CC(O)CO` (centres unmarked) [Propylene glycol, propylene glycol], for which the viscosity in data set [1] (at 25° C.) is 42 cps.

Regarding `O` [Water], the viscosity result in data set [1] (at 15° C.) is listed as “approximately 1.14 cps”.
